Measurements published in patent US20240239786A1, “COMPOSITIONS AND METHODS FOR THE TREATMENT AND PREVENTION OF CANCER” (Yale University, priority 2021, published 2024).

Tested on: PEO4 cells
Assay: Flow cytometric EdU incorporation (DNA synthesis) assay, PEO4
Type: cell-based
Details: for time-dependent inhibition of DNA synthesis (EdU-positive cells): 30 μM DB4 or 1 μM triapine, 3, 6, 24 hr
Procedure: Cells were plated for 24 hr and then treated with 50 μM compounds for 72 hr. For a positive control, cells were treated with 1 μM triapine for 72 hr. The percentage of cell survival was determined by the MTS cytotoxicity assay. […] Cells were treated with 50 μM compounds or 1 μM triapine for 24 hr. During the last hour, cells were pulse-labeled with EdU, stained with the Click-iT EdU Alexa Fluor 488 Assay Kit, counterstained with 7-AAD, and subsequently analyzed by flow cytometry. EdU-positive cells were gated to determine the percentage of the S phase cell population. The bivariate plots of Alexa Fluor 488 (EdU-positive) and PE-Cy5 (7-AAD-positive) are shown. […] Cells were treated with 50 μM compounds or 1 μM triapine for 24 hr. During the last hour, cells were pulse-labeled with EdU, stained with the Click-iT EdU Alexa Fluor 488 Assay Kit, counterstained with 7-AAD, and subsequently analyzed by flow cytometry. EdU-positive cells were gated to determine the percentage of the S phase cell population. The percentages of DNA synthesis in cells treated with each of 10 compounds and triapine relative to the DMSO-treated control is calculated and shown. FIG. 2D depicts representative results of dNTP measurement on triapine and DB4 in PEO4 cells. Cells were treated with 1 μM triapine or 50 μM DB4 for 24 hr. Cells were extracted with 65% methanol for determination of each of dNTPs expressed as pmole/10^6 cells. Data are means±SD (N=3). *, p<0.05; **, p<0.01; ***, p<0.001, compared with the DMSO-treated control in each dNTP. […] The percentage of cell survival was determined by the MTS cytotoxicity assay. […]
PEO1 cells were treated with 30 μM DB4 or 1 μM triapine for indicated times, pulsed with EdU for 1 hr and subsequently assayed for DNA synthesis inhibition as described in FIG. 2B. […] Protein was analyzed by western blotting for p-Chk1, p-ATR, p-RPA32, γH2AX, and HSC70. […] DSB end resection is assessed by the level of p-RPA32. […]

Structure (SMILES) | time-dependent inhibition of DNA synthesis (EdU-positive cells) | inhibition at 50 µM (50 μM, 24 hr)
NC(=S)NN=Cc1ncccc1N [triapine, 3-aminopyridine-2-carboxaldehyde-thiosemicarbazone, reference compound] | prompt reduction in EdU-positive cells | 
C=CCn1c(SCc2cccc(Cl)c2)nnc1C1CCN(Cc2nc3ccccc3s2)CC1 [DB4, 2-[(4-{4-allyl-5-[(3-chlorobenzyl)thio]-4H-1,2,4-triazol-3-yl}-1-piperidinyl)methyl]-1,3-benzothiazole] | gradual decline in the EdU-positive cell population | > 99%
